Laboratory results published in DBAASP.
In brackets after ≈: the same amount, converted by molar mass.

Assays:
Experiment in all cases: ≥ marks a high value that may be exact or a test limit, other limits are often not marked, values filed in µg/mL are converted to µM
[1] = tested on: Candida albicans ATCC 10231
[2] = tested on: Enterococcus faecalis PCM 2673
[3] = tested on: Escherichia coli ATCC 25922
[4] = tested on: Pseudomonas aeruginosa ATCC 9027
[5] = tested on: Staphylococcus aureus ATCC 25923
Bacillus subtilis = tested on: Bacillus subtilis
Escherichia coli = tested on: Escherichia coli
Klebsiella pneumoniae = tested on: Klebsiella pneumoniae
Micrococcus luteus = tested on: Micrococcus luteus
Proteus mirabilis = tested on: Proteus mirabilis
Pseudomonas aeruginosa = tested on: Pseudomonas aeruginosa
Salmonella typhimurium = tested on: Salmonella typhimurium
Shigella dysenteriae = tested on: Shigella dysenteriae
Staphylococcus aureus = tested on: Staphylococcus aureus
[6] = tested on: Staphylococcus epidermidis
Escherichia coli K-12 = tested on: Escherichia coli K-12
[7] = tested on: Staphylococcus aureus USA 300
Bacillus megaterium = tested on: Bacillus megaterium
[8] = tested on: Candida albicans ATCC 2002
[9] = tested on: Pseudomonas aeruginosa CMCCB 10104
[10] = tested on: Staphylococcus aureus ATCC 2592
[11] = tested on: Klebsiella pneumoniae ATCC 13883
[12] = tested on: Pseudomonas aeruginosa PAO1
[13] = tested on: Cronobacter sakazakii DPC 6440
[14] = tested on: Listeria monocytogenes LO28
Escherichia coli ML-35p = tested on: Escherichia coli ML-35p
[15] = tested on: Staphylococcus aureus RN4220
Candida albicans = tested on: Candida albicans
[16] = tested on: Enterococcus faecalis ATCC 29212
Escherichia coli UB1005 = tested on: Escherichia coli UB1005
[17] = tested on: Pseudomonas aeruginosa H103
[18] = tested on: Salmonella enterica serovar Typhimurium

`CC[C@H](C)[C@H](NC(=O)[C@H](CCCCN)NC(=O)[C@H](CCCCN)NC(=O)[C@@H](NC(=O)[C@@H](NC(=O)[C@H](CC(=O)O)NC(=O)[C@H](Cc1ccccc1)NC(=O)[C@H](CC(C)C)NC(=O)[C@H](C)N)[C@@H](C)CC)[C@@H](C)CC)C(=O)N[C@@H](C)C(=O)N[C@@H](CCC(=O)O)C(=O)N[C@@H](CO)C(=O)N[C@@H](Cc1ccccc1)C(N)=O` [ALFDIIKKIAESF] was tested, and the MIC [1] was 85.6 µM (≈ 128 µg/mL), the MIC [2] was ≥ 85.6 µM and the MIC [3] was 85.6 µM (≈ 128 µg/mL). The MIC [4] was 343 µM (≈ 512 µg/mL) and the MIC [5] was 343 µM (≈ 512 µg/mL).

Work on `CC(C)C[C@H](NC(=O)[C@H](C)NC(=O)CNC(=O)[C@H](CC(C)C)NC(=O)[C@@H](N)Cc1ccccc1)C(=O)N[C@@H](Cc1ccccc1)C(=O)N[C@@H](CCCCN)C(=O)N[C@@H](Cc1ccccc1)C(=O)N[C@@H](C)C(=O)N[C@@H](CO)C(=O)N[C@@H](CCCCN)C(=O)O` [FLGALFKFASK] yielded an MIC (Bacillus subtilis) of 20.4 µM (≈ 25 µg/mL), an MIC (Escherichia coli) of 81.4 µM (≈ 100 µg/mL) and an MIC (Klebsiella pneumoniae) of 81.4 µM (≈ 100 µg/mL). For the same compound, the MIC (Micrococcus luteus) was 20.4 µM (≈ 25 µg/mL), the MIC (Proteus mirabilis) was ≥ 163 µM and the MIC (Pseudomonas aeruginosa) was > 163 µM. The MIC (Salmonella typhimurium) was ≥ 163 µM, the MIC (Shigella dysenteriae) was ≥ 81.4 µM and the MIC (Staphylococcus aureus) was 40.7 µM (≈ 50 µg/mL). The MIC [6] was ≥ 81.4 µM.

With `CC(C)[C@H](NC(=O)[C@H](CO)NC(=O)[C@H](Cc1cnc[nH]1)NC(=O)[C@H](Cc1ccccc1)NC(=O)[C@H](C)NC(=O)[C@H](CCCCN)NC(=O)CNC(=O)[C@H](Cc1ccccc1)NC(=O)CN)C(=O)N[C@@H](CO)C(=O)N[C@@H](CC(N)=O)C(=O)N[C@@H](Cc1ccccc1)C(=O)N[C@@H](C)C(=O)N[C@@H](CCCCN)C(=O)N[C@@H](CCCCN)C(=O)N[C@@H](Cc1cnc[nH]1)C(=O)N[C@@H](CCCCN)C(=O)N[C@H](C(=O)N[C@@H](C)C(N)=O)[C@@H](C)O` [GFGKAFHSVSNFAKKHKTA] the MIC (Escherichia coli K-12) was ≥ 100 µM and the MIC [7] was ≥ 100 µM.

`CC[C@H](C)[C@H](N=C(O)CN)C(O)=NCC(O)=N[C@H](C(O)=N[C@@H](CCCCN)C(O)=N[C@H](C(O)=N[C@@H](CC(C)C)C(O)=NCC(O)=NCC(O)=N[C@H](C(O)=N[C@@H](CCCCN)C(O)=N[C@H](C(O)=N[C@@H](C)C(O)=N[C@@H](CC(C)C)C(O)=N[C@@H](CCCCN)C(O)=NCC(O)=N[C@@H](C)C(O)=N[C@@H](CC(C)C)C(O)=N[C@@H](CCCCN)C(O)=N[C@@H](CCC(=O)O)C(O)=N[C@@H](CC(C)C)C(O)=N[C@@H](C)C(O)=N[C@@H](CO)C(O)=N[C@H](C(O)=N[C@@H](Cc1ccc(O)cc1)C(O)=N[C@@H](C)C(O)=N[C@@H](CC(=N)O)C(=N)O)[C@@H](C)O)[C@@H](C)O)C(C)C)[C@@H](C)CC)[C@@H](C)O` [GIGTKILGGVKTALKGALKELASTYAN] showed an MIC (Bacillus megaterium) of 7.29 µM (≈ 19.5 µg/mL), an MIC [8] of 1.12 µM (≈ 3 µg/mL) and an MIC [3] of 7.29 µM (≈ 19.5 µg/mL). The MIC (Klebsiella pneumoniae) was 3.36 µM (≈ 9 µg/mL), the MIC [9] was 7.29 µM (≈ 19.5 µg/mL) and the MIC (Shigella dysenteriae) was 1.01 µM (≈ 2.7 µg/mL). For the same compound, the MIC [10] was 7.29 µM (≈ 19.5 µg/mL).

In the case of `CC[C@H](C)[C@H](NC(=O)[C@H](C)NC(=O)[C@H](CCCCN)NC(=O)[C@@H](NC(=O)[C@@H](NC(=O)[C@H](CC(=O)O)NC(=O)[C@H](Cc1ccccc1)NC(=O)[C@H](CC(C)C)NC(=O)CN)[C@@H](C)CC)[C@@H](C)CC)C(=O)N[C@@H](C)C(=O)N[C@@H](CCC(=O)O)C(=O)N[C@@H](CO)C(=O)N[C@@H](Cc1ccccc1)C(N)=O` [GLFDIIKAIAESF], the MIC [1] is reported as 45 µM (≈ 64 µg/mL), the MIC [2] is reported as ≥ 45 µM and the MIC [3] is reported as 89.9 µM (≈ 128 µg/mL). For the same compound, the MIC [4] was > 360 µM and the MIC [5] was > 360 µM.

`CC(C)C[C@H](NC(=O)[C@H](CC(C)C)NC(=O)[C@H](CCCCN)NC(=O)[C@H](CC(C)C)NC(=O)CNC(=O)[C@H](CC(C)C)NC(=O)[C@H](CCCCN)NC(=O)[C@H](CC(C)C)NC(=O)[C@H](CC(C)C)NC(=O)[C@H](CC(C)C)NC(=O)[C@H](CO)NC(=O)[C@H](CC(C)C)NC(=O)CN)C(N)=O` [GLSLLLKLGLKLL] was tested, and the MIC [3] was > 25 µM, the MIC [11] was 25 µM (≈ 34.5 µg/mL) and the MIC [12] was > 25 µM. It also gave an MIC [7] of 1.13 µM (≈ 1.56 µg/mL).

`CC[C@H](C)[C@H](NC(=O)[C@H](Cc1c[nH]c2ccccc12)NC(=O)[C@@H]1CCCN1C(=O)[C@H](CCCCN)NC(=O)[C@H](CCSC)NC(=O)[C@H](C)NC(=O)[C@@H](N)CCCCN)C(=O)N[C@@H](CCC(N)=O)C(=O)N1CCC[C@H]1C(=O)N[C@@H](CCCCN)C(=O)N[C@H](C(=O)N[C@@H](CCCCN)C(=O)N[C@H](C(=O)N[C@H](C(=O)N1CCC[C@H]1C(=O)O)[C@@H](C)CC)C(C)C)[C@@H](C)O` [KAMKPWIQPKTKVIP] was tested, and the MIC [13] was ≥ 1250 µM and the MIC [14] was ≥ 156 µM.

`NC(=O)[C@H](CCCN=C(N)N)NC(=O)[C@H](CCCN=C(N)N)NC(=O)[C@H](Cc1c[nH]c2ccccc12)NC(=O)[C@H](CCCN=C(N)N)NC(=O)[C@H](CCCN=C(N)N)NC(=O)[C@H](Cc1c[nH]c2ccccc12)NC(=O)[C@H](Cc1c[nH]c2ccccc12)NC(=O)[C@H](CCCN=C(N)N)NC(=O)[C@@H](N)CCCN=C(N)N` [RRWWRRWRR] was tested, and the MIC (Escherichia coli ML-35p) was 25 µM (≈ 37.8 µg/mL) and the MIC [15] was ≥ 100 µM.

`NCCCC[C@H](NC(=O)[C@H](CCCN=C(N)N)NC(=O)[C@H](CCCN=C(N)N)NC(=O)[C@H](Cc1c[nH]c2ccccc12)NC(=O)[C@@H](N)CCCN=C(N)N)C(=O)N[C@@H](Cc1c[nH]c2ccccc12)C(=O)N[C@@H](Cc1c[nH]c2ccccc12)C(=O)N[C@@H](Cc1c[nH]c2ccccc12)C(=O)N[C@@H](Cc1c[nH]c2ccccc12)C(=O)O` [RWRRKWWWW] gave an MIC (Candida albicans) of 5.6 µM (≈ 8.66 µg/mL), an MIC [16] of 2.8 µM (≈ 4.33 µg/mL) and an MIC (Escherichia coli UB1005) of 1.4 µM (≈ 2.16 µg/mL). For the same compound, the MIC [17] was 11.2 µM (≈ 17.3 µg/mL), the MIC [18] was 2.8 µM (≈ 4.33 µg/mL) and the MIC [5] was 0.7 µM (≈ 1.08 µg/mL). The MIC [6] was 0.7 µM (≈ 1.08 µg/mL).

For `CC[C@H](C)[C@H](NC(=O)[C@@H](N)Cc1c[nH]c2ccccc12)C(=O)N[C@@H](C)C(=O)N1CCC[C@H]1C(=O)N[C@@H](CCCCN)C(=O)N[C@H](C(=O)N[C@@H](CCCCN)C(=O)N[C@H](C(=O)N[C@H](C(=O)N1CCC[C@H]1C(=O)N[C@@H](Cc1ccc(O)cc1)C(=O)N[C@H](C(=O)N[C@@H](CCCN=C(N)N)C(=O)N[C@@H](Cc1ccc(O)cc1)C(=O)N[C@@H](CC(C)C)C(=O)O)C(C)C)[C@@H](C)CC)C(C)C)[C@@H](C)O` [WIAPKTKVIPYVRYL], the MIC [13] was ≥ 78.1 µM and the MIC [14] was 19.5 µM (≈ 36.1 µg/mL).

`CC[C@H](C)[C@H](NC(=O)[C@@H](N)Cc1c[nH]c2ccccc12)C(=O)N[C@@H](CCC(N)=O)C(=O)N1CCC[C@H]1C(=O)N[C@@H](CCCCN)C(=O)N[C@H](C(=O)N[C@@H](CCCCN)C(=O)N[C@H](C(=O)N[C@H](C(=O)N1CCC[C@H]1C(=O)N[C@@H](Cc1ccc(O)cc1)C(=O)N[C@H](C(=O)N[C@@H](CCCN=C(N)N)C(=O)N[C@@H](Cc1ccc(O)cc1)C(=O)N[C@@H](C)C(=O)O)C(C)C)[C@@H](C)CC)C(C)C)[C@@H](C)O` [WIQPKTKVIPYVRYA] was tested, and the MIC [13] was ≥ 78.1 µM and the MIC [14] was ≥ 39.1 µM.
